System: 885724-159-R-J1-PDC KRAS PDC multicell spheroid viability
Assay: Anticancer human tumor 885724-159-R-J1-PDC patient-derived pancreatic adenocarcinoma cell line growth inhibition [KRAS2]
Details: for IC50: curve of first compound; for viability, T/C: stronger effect = lower value
In short: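 KRAS-mutant tumor cells were grown as spheroids with HUVEC endothelial cells and human MSCs as stroma. Targeted agents were tested alone and with KRAS pathway inhibitors. Doses started at or near clinical Cmax, or 10 microM, descending half-log.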

[1] = second compound 0.1 µM, first compound 0.0316 µM
[2] = second compound 0.1 µM, first compound 0.1 µM
[3] = second compound 0.316 µM, first compound 0.0316 µM
[4] = second compound 0.316 µM, first compound 0.1 µM
[5] = second compound 1 µM, first compound 0.0316 µM
[6] = second compound 1 µM, first compound 0.1 µM
[7] = second compound 3.16 µM, first compound 0.0316 µM
[8] = second compound 3.16 µM, first compound 0.1 µM
[9] = second compound 10 µM, first compound 0.0316 µM
[10] = second compound 10 µM, first compound 0.1 µM
[11] = second compound 0.1 µM, first compound 0.316 µM
[12] = second compound 0.1 µM, first compound 1 µM
[13] = second compound 0.1 µM, first compound 3.16 µM
[14] = second compound 0.1 µM, first compound 10 µM
[15] = second compound 0.316 µM, first compound 0.316 µM
[16] = second compound 0.316 µM, first compound 1 µM
[17] = second compound 0.316 µM, first compound 3.16 µM
[18] = second compound 0.316 µM, first compound 10 µM
[19] = second compound 1 µM, first compound 0.316 µM
[20] = second compound 1 µM, first compound 1 µM
[21] = second compound 1 µM, first compound 3.16 µM
[22] = second compound 1 µM, first compound 10 µM
[23] = second compound 3.16 µM, first compound 0.316 µM
[24] = second compound 3.16 µM, first compound 1 µM
[25] = second compound 3.16 µM, first compound 3.16 µM
[26] = second compound 3.16 µM, first compound 10 µM
[27] = second compound 10 µM, first compound 0.316 µM
[28] = second compound 10 µM, first compound 1 µM
[29] = second compound 10 µM, first compound 3.16 µM
[30] = second compound 10 µM, first compound 10 µM
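Note: spheroids exposed to agents for 7 days before readout.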

| Compound | IC50 (second compound 0.1 µM) | IC50 (second compound 0.316 µM) | IC50 (second compound 1 µM) | IC50 (second compound 3.16 µM) | IC50 (second compound 10 µM) | viability, T/C [1] | viability, T/C [2] | viability, T/C [3] | viability, T/C [4] | viability, T/C [5] | viability, T/C [6] | viability, T/C [7] | viability, T/C [8] | viability, T/C [9] | viability, T/C [10] | viability, T/C [11] | viability, T/C [12] | viability, T/C [13] | viability, T/C [14] | viability, T/C [15] | further results |
| --- | --- | --- | --- | --- | --- | --- | --- | --- | --- | --- | --- | --- | --- | --- | --- | --- | --- | --- | --- | --- | --- |
| CC(C)n1nc(-c2ccc3oc(N)nc3c2)c2c(N)ncnc21 + CNCc1ccccc1-c1csc(C(C)Nc2nc(C)nc3cc(OC)c(OC)cc23)c1 | > 100 nM | 42 nM | 58.3 nM | < 0.316 nM | < 0.316 nM | 54.6% | 52.4% | 50.2% | 45.6% | 50.2% | 48.5% | 3.15% | 1.32% | 0.23% | 0.34% | – | – | – | – | – | viability, T/C (second compound 0.1 µM, first compound 0.000316 µM): 87%; viability, T/C (second compound 0.1 µM, first compound 0.001 µM): 81.1%; viability, T/C (second compound 0.1 µM, first compound 0.00316 µM): 73.6%; viability, T/C (second compound 0.1 µM, first compound 0.01 µM): 65%; viability, T/C (second compound 0.316 µM, first compound 0.000316 µM): 100%; viability, T/C (second compound 0.316 µM, first compound 0.001 µM): 75.3%; viability, T/C (second compound 0.316 µM, first compound 0.00316 µM): 70.7%; viability, T/C (second compound 0.316 µM, first compound 0.01 µM): 60.6%; viability, T/C (second compound 1 µM, first compound 0.000316 µM): 85.8%; viability, T/C (second compound 1 µM, first compound 0.001 µM): 76.2%; viability, T/C (second compound 1 µM, first compound 0.00316 µM): 69.2%; viability, T/C (second compound 1 µM, first compound 0.01 µM): 60.6%; viability, T/C (second compound 3.16 µM, first compound 0.000316 µM): 2.37%; viability, T/C (second compound 3.16 µM, first compound 0.001 µM): 11.2%; viability, T/C (second compound 3.16 µM, first compound 0.00316 µM): 2.11%; viability, T/C (second compound 3.16 µM, first compound 0.01 µM): 1.36%; viability, T/C (second compound 10 µM, first compound 0.000316 µM): 0.19%; viability, T/C (second compound 10 µM, first compound 0.001 µM): 0.31%; viability, T/C (second compound 10 µM, first compound 0.00316 µM): 0.18%; viability, T/C (second compound 10 µM, first compound 0.01 µM): 0.18% |
| CC1(C)CCC(CN2CCN(c3ccc(C(=O)NS(=O)(=O)c4ccc(NCC5CCOCC5)c([N+](=O)[O-])c4)c(Oc4cnc5[nH]ccc5c4)c3)CC2)=C(c2ccc(Cl)cc2)C1 + CNCc1ccccc1-c1csc(C(C)Nc2nc(C)nc3cc(OC)c(OC)cc23)c1 | 6720 nM | 5820 nM | 5300 nM | < 31.6 nM | < 31.6 nM | 96.3% | 89.6% | 86.6% | 90.3% | 101% | 93.6% | 1.12% | 0.55% | 0.42% | 1.23% | 88.8% | 88.5% | 82.7% | 32.6% | 85.7% | viability, T/C [16]: 91%; viability, T/C [17]: 82.4%; viability, T/C [18]: 21%; viability, T/C [19]: 89.1%; viability, T/C [20]: 82.3%; viability, T/C [21]: 82.9%; viability, T/C [22]: 12.1%; viability, T/C [23]: 0.55%; viability, T/C [24]: 0.79%; viability, T/C [25]: 0.62%; viability, T/C [26]: 1.03%; viability, T/C [27]: 0.37%; viability, T/C [28]: 0.2%; viability, T/C [29]: 0.17%; viability, T/C [30]: 0.2% |
| COc1cc(Nc2ncc3c(n2)-c2ccc(Cl)cc2C(c2c(F)cccc2OC)=NC3)ccc1C(=O)O + CNCc1ccccc1-c1csc(C(C)Nc2nc(C)nc3cc(OC)c(OC)cc23)c1 | > 10000 nM | > 10000 nM | > 10000 nM | < 31.6 nM | < 31.6 nM | 102% | 98.5% | 102% | 92.7% | 94.8% | 87.7% | 2.11% | 2.66% | 0.16% | 0.37% | 90.5% | 92.7% | 94.7% | 101% | 89.4% | viability, T/C [16]: 88.5%; viability, T/C [17]: 81%; viability, T/C [18]: 87.7%; viability, T/C [19]: 73.6%; viability, T/C [20]: 81.4%; viability, T/C [21]: 75.6%; viability, T/C [22]: 83.5%; viability, T/C [23]: 1.13%; viability, T/C [24]: 1.16%; viability, T/C [25]: 4.03%; viability, T/C [26]: 12.1%; viability, T/C [27]: 0.43%; viability, T/C [28]: 0.34%; viability, T/C [29]: 0.16%; viability, T/C [30]: 0.35% |
| COc1cc2nccc(Oc3ccc(NC(=O)C4(C(=O)Nc5ccc(F)cc5)CC4)cc3)c2cc1OC + CNCc1ccccc1-c1csc(C(C)Nc2nc(C)nc3cc(OC)c(OC)cc23)c1 | > 10000 nM | > 10000 nM | 1770 nM | < 31.6 nM | < 31.6 nM | 98.3% | 105% | 96.9% | 101% | 99% | 89.9% | 1.16% | 0.87% | 0.39% | 0.36% | 99.2% | 103% | 69.5% | 61.3% | 95.3% | viability, T/C [16]: 90%; viability, T/C [17]: 61.6%; viability, T/C [18]: 58.7%; viability, T/C [19]: 85.1%; viability, T/C [20]: 86.1%; viability, T/C [21]: 13.3%; viability, T/C [22]: 12.6%; viability, T/C [23]: 1.19%; viability, T/C [24]: 0.42%; viability, T/C [25]: 0.32%; viability, T/C [26]: 0.42%; viability, T/C [27]: 0.17%; viability, T/C [28]: 0.18%; viability, T/C [29]: 0.51%; viability, T/C [30]: 0.47% |

— PubChem BioAssay AID1963861 (Molecular Pharmacology Branch, DTP, NCI, 2024)
